Assay results: EP0982317A1, “Bivalent inhibitors of the proteasome” (Max-Planck-Gesellschaft zur Förderung der Wissenschaften …, priority 1998, dated 2000)
Read-outs that look alike come from different tables or passages of the source. Where a SMILES comes first, the peptide text is derived from it. [ ]: non-standard residue; d: D form. Nle = CCCC[C@H](N)C(=O)O

Key:
Format in all cases: biochemical
[1] = biological target: T1, yeast proteasome β1/β1' (PGPH) (Saccharomyces cerevisiae, UniProt P38624); assay: Proteasome assay, PGPH activity (fluorogenic substrate Z-Leu-Leu-Gly-βNA); conditions: 6.67 nM proteasome, Tris-buffer pH 7.5, incubated with inhibitor 1 h at 37°C, Z-Leu-Leu-Gly-βNA 40 µM, read-out: Inhibition of yeast proteasome (IC50) β1/β1'
Description: (§1) A solution of proteasome from Saccharomyces cerivisiae in Tris-buffer (pH 7.5; 450 µl; 6.67 nM for PGPH, 5.56 nM for trypsin-like and 1.11 nM for chymotrypsin-like activity) was incubated with the inhibitors at varying concentrations ([…]) for 1 h at 37°C. The fluorogenic substrates for PGPH (Z-Leu-Leu-Gly-βNA, 40 µM), trypsin-like (Bz-Phe-Val-Arg-AMC, 8 µM) and chymotrypsin-like assays (Suc-Leu-Leu-Val-Tyr-AMC, 8 µM) were dissolved in the same Tris-buffer with a minimum amount of DMSO and added to the enzyme solution at 37 °C to reach a final volume of 500 µl. Fluorescence excitation/emission wavelengths were 360 nm/460 nm for AMC and 335 nm/410 nm for βNA. The rates of hydrolysis were monitored by the fluorescence increase and the initial linear portions of curves (100-300 sec) were used to calculate the IC50 values.

[2] = biological target: T2, yeast proteasome β2/β2' (trypsin-like activity) (Saccharomyces cerevisiae, UniProt P25043); assay: Proteasome assay, trypsin-like activity (fluorogenic substrate Bz-Phe-Val-Arg-AMC); design: Three of the seven different β-type subunits are processed at the threonine-1 residue; conditions: 5.56 nM proteasome, Tris-buffer pH 7.5, incubated with inhibitor 1 h at 37°C, Bz-Phe-Val-Arg-AMC 8 µM, read-out: Inhibition of yeast proteasome (IC50) β2/β2'
Description: as §1

[3] = biological target: T3, yeast proteasome β5/β5' (chymotrypsin-like activity) (Saccharomyces cerevisiae, UniProt P30656); assay: Proteasome assay, chymotrypsin-like activity (fluorogenic substrate Suc-Leu-Leu-Val-Tyr-AMC); design: Three of the seven different β-type subunits are processed at the threonine-1 residue; conditions: 1.11 nM proteasome, Tris-buffer pH 7.5, incubated with inhibitor 1 h at 37°C, Suc-Leu-Leu-Val-Tyr-AMC 8 µM, read-out: Inhibition of yeast proteasome (IC50) β5/β5'
Description: as §1

[4] = biological target: T3, yeast proteasome β5/β5' (chymotrypsin-like activity); assay: as above; design: endogenous in cells; host or cells: Saccharomyces cerevisiae (isolated native complex; purification, strain and supplier not described); conditions: for IC50: chymotrypsin-like activity, 1.11 nM proteasome, Tris-buffer pH 7.5, incubated with inhibitor 1 h at 37°C, Suc-Leu-Leu-Val-Tyr-AMC 8 µM, read-out: Inhibition of yeast proteasome (IC50) β5/β5'
Description: as §1

[5] = biological target: T2, yeast proteasome β2/β2' (trypsin-like activity); assay: Proteasome assay, trypsin-like activity (fluorogenic substrate Bz-Phe-Val-Arg-AMC); design: endogenous in cells; host or cells: Saccharomyces cerevisiae (isolated native complex; purification, strain and supplier not described); conditions: 5.56 nM proteasome, Tris-buffer pH 7.5, incubated with inhibitor 1 h at 37°C, Bz-Phe-Val-Arg-AMC 8 µM, read-out: Inhibition of yeast proteasome (IC50) β2/β2'
Description: as §1

[6] = biological target: T1, yeast proteasome β1/β1' (PGPH); assay: Proteasome assay, PGPH activity (fluorogenic substrate Z-Leu-Leu-Gly-βNA); design: endogenous in cells; host or cells: Saccharomyces cerevisiae (isolated native complex; purification, strain and supplier not described); conditions: 6.67 nM proteasome, Tris-buffer pH 7.5, incubated with inhibitor 1 h at 37°C, Z-Leu-Leu-Gly-βNA 40 µM, read-out: Inhibition of yeast proteasome (IC50) β1/β1'
Description: as §1

Compound	IC50 [1]	IC50 [2]	IC50 [3]	IC50 [4]	increase in binding affinity ([4]; chymotryptic activity, compared to inhibitor 1 or to the monovalent inhibitor 2)	IC50 [5]	IC50 [6]
CCCC[C@@H](C=O)NC(=O)[C@H](CC(C)C)NC(=O)[C@H](CC(C)C)NC(C)=O [Inhibitor 1, Ac-Leu-Leu-Nle-H] (Ac-Leu-Leu-[Nle]-aldehyde)	> 100 µM	> 100 µM	2.1 µM				
(PEG)18-25-[NH-CO-(CH2)2-CO-Leu-Leu-Nle-H]2 [Inhibitor 3]				0.017 µM	about two orders of magnitude	> 100 µM	> 100 µM
HOOC-(CH2)2-CO-NH-(PEG)18-25-NH-(CH2)2-CO-Leu-Leu-Nle-H [Inhibitor 2]				1.8 µM		> 100 µM	> 100 µM
